According to patent US11149037B2, “Pyrazole MAGL inhibitors” (H. Lundbeck A/S, priority 2017, dated 2021):

What was measured:
MAGL [1] = biological target: T1, MAGL (Mus musculus (Mouse), UniProt O35678); experiment: In vitro competitive activity-based protein profiling, mouse proteomes (brain membrane fraction or cell lysates); assay type: biochemical; conditions: mouse proteome, read-out: MAGL % inh. 1 μM (mouse)
In short: (§1)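 Activity of MAGL and FAAH was quantified from fluorescent gel band intensities. Beforehand, inhibitors at several concentrations competed against subsequent probe labelling (FP-Rh, JW912 or HT-01) in species-matched proteomes, each step 30 min at 37° C.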

FAAH [2] = biological target: T2, FAAH (Mus musculus (Mouse), UniProt O08914); experiment: as above; assay type: biochemical; conditions: mouse proteome, read-out: FAAH % inh. 1 μM (mouse)
T2 sequence (O08914 whole entry): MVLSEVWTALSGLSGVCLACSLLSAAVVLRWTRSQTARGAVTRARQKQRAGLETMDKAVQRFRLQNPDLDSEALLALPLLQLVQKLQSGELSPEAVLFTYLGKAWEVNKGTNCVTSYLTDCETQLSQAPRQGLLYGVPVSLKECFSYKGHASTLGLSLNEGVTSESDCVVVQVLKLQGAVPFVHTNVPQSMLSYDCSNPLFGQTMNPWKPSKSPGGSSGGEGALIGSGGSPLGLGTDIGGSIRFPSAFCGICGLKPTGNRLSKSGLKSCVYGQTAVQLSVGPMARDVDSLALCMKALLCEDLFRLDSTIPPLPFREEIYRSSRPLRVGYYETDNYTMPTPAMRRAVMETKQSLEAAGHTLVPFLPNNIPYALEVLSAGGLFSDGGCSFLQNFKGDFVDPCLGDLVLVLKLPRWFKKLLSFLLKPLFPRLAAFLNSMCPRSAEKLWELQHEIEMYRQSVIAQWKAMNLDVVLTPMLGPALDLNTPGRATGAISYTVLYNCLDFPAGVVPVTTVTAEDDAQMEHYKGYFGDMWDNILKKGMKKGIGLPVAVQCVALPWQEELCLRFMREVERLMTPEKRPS
In short: as §1

MAGL [3] = biological target: T1, MAGL; experiment: Mouse brain proteomes from inhibitor treated mice (oral gavage, sacrificed 4 h after administration); assay type: in vivo; conditions: 5 mg/kg oral gavage
Description: (§2) Preparation of Mouse Brain Proteomes from Inhibitor Treated Mice.
(§3) Inhibitors were administered to wild-type C57B1/6J by oral gavage in a vehicle of polyethylene glycol. Each animal was sacrificed 4 h following administration and brain proteomes were prepared and analyzed according to previously established methods (See Niphakis, M. J., et al. (2011) ACS Chem. Neurosci. and Long, J. Z., et al. Nat. Chem. Biol. 5:37-44).

FAAH [4] = biological target: T2, FAAH; experiment: as above; assay type: in vivo; conditions: 5 mg/kg oral gavage
Description: as §2, §3

FAAH [5] = biological target: FAAH (Homo sapiens (Human), UniProt O00519); experiment: In vitro competitive activity-based protein profiling, human proteomes (prefrontal cortex or PC3 cell membrane fractions); assay type: biochemical; conditions: human proteome; for inhibition at 1 µM: read-out: FAAH % inh. 1 μM (human)
Chain of FAAH (Homo sapiens (Human), UniProt O00519) (O00519 whole entry): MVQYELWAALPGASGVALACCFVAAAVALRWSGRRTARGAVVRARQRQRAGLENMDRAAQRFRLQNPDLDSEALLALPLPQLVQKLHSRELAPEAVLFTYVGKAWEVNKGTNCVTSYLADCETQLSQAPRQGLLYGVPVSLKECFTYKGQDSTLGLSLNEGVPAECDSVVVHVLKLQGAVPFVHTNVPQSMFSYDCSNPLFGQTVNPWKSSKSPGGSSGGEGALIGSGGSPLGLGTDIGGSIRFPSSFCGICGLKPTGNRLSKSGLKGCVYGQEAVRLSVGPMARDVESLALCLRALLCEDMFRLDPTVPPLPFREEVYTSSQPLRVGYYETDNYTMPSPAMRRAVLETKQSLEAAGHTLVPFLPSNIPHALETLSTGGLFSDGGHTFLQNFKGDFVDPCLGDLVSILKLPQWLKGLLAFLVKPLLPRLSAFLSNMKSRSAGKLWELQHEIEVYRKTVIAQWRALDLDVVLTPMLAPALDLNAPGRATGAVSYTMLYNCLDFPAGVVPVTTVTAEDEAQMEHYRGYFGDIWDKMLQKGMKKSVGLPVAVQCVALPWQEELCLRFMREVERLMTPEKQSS
In short: as §1

MAGL [6] = biological target: MAGL (Homo sapiens (Human), UniProt Q99685); experiment: as above; assay type: biochemical; conditions: human proteome; for inhibition at 1 µM: read-out: MAGL % inh. 1 μM (human)
Chain of MAGL (Homo sapiens (Human), UniProt Q99685) (Q99685 whole entry): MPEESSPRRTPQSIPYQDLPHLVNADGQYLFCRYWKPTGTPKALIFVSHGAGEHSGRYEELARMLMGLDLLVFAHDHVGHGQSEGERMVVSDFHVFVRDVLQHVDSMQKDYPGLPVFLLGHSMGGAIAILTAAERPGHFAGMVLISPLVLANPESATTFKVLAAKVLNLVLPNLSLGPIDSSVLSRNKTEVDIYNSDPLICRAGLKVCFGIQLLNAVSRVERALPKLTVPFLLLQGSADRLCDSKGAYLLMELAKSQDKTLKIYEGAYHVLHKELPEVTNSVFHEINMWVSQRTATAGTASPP
In short: as §1

T1 sequence (O35678 whole entry): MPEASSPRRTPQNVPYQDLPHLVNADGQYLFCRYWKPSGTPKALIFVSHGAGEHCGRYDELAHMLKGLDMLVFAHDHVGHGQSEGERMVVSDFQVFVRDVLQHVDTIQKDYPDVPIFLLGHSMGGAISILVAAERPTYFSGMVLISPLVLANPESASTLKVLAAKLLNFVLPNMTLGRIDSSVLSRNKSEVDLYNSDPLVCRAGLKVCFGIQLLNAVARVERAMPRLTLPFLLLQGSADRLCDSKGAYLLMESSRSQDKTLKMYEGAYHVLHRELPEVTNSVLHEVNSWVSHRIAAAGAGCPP

| Compound | inhibition at 1 µM (MAGL [1]) [%] | inhibition at 1 µM (FAAH [2]) [%] | MAGL % inh. 5 mg/kg (mouse) (MAGL [3]) | FAAH % inh. 5 mg/kg (mouse) (FAAH [4]) | inhibition at 1 µM (FAAH [5]) [%] | inhibition at 1 µM (MAGL [6]) [%] | IC50 (FAAH [5]) [µM] | IC50 (MAGL [6]) [µM] |
| --- | --- | --- | --- | --- | --- | --- | --- | --- |
| CC(=O)Nc1ccn(C(=O)N2CC3CN(Cc4cc(N5CCCC5)cc(C(F)(F)F)c4)CC3C2)n1 (centres unmarked) [Example 168, N-(1-(5-(3-(Pyrrolidin-1-yl)-5-(trifluoromethyl)benzyl)octahydropyrrolo[3,4-c]pyrrole-2-carbonyl)-1H-pyrazol-3-yl)acetamide] | > 75 | > 75 | A (% inhibition is greater than or equal to 75%) | A (% inhibition is greater than or equal to 75%) | 50 to 75 | > 75 | – | – |
| CC(=O)Nc1ccn(C(=O)N2CCN(Cc3ccc(C(F)(F)F)cc3NCCCC(=O)O)CC2)n1 [Example 76, 4-((2-((4-(3-Acetamido-1H-pyrazole-1-carbonyl)piperazin-1-yl)methyl)-5-(trifluoromethyl)phenyl)amino)butanoic acid] | > 75 | 0 to 25 | D (% inhibition is greater than or equal to 0% and less than 25%) | D (% inhibition is greater than or equal to 0% and less than 25%) | 0 to 25 | > 75 | – | – |
| CS(=O)(=O)Nc1ccn(C(=O)N2CCN(Cc3ccc(Cl)c(N4C[C@H]5C[C@@H]4CO5)c3)CC2)n1 [Example 157, N-(1-(4-(3-((1R,4R)-2-Oxa-5-azabicyclo[2.2.1]heptan-5-yl)-4-chlorobenzyl)piperazine-1-carbonyl)-1H-pyrazol-3-yl)methanesulfonamide] | > 75 | 0 to 25 | D (% inhibition is greater than or equal to 0% and less than 25%) | D (% inhibition is greater than or equal to 0% and less than 25%) | 0 to 25 | > 75 | – | – |
| C[C@@H]1CN(C(=O)n2ccc(NS(C)(=O)=O)n2)CCN1Cc1ccc(Cl)c(N2CCC(F)CC2)c1 [Example 138, (R)-N-(1-(4-(4-Chloro-3-(4-fluoropiperidin-1-yl)benzyl)-3-methylpiperazine-1-carbonyl)-1H-pyrazol-3-yl)methanesulfonamide] | > 75 | 0 to 25 | A (% inhibition is greater than or equal to 75%) | D (% inhibition is greater than or equal to 0% and less than 25%) | 0 to 25 | > 75 | – | – |
| CN(Cc1ccc(C(F)(F)F)cc1N1CCN(C(=O)CO)CC1)C1(C)CCN(C(=O)n2ccc(NS(C)(=O)=O)n2)CC1 [Example 104, N-(1-(4-((2-(4-(2-Hydroxyacetyl)piperazin-1-yl)-4-(trifluoromethyl)benzyl)(methyl)amino)-4-methylpiperidine-1-carbonyl)-1H-pyrazol-3-yl)methanesulfonamide] | > 75 | 0 to 25 | D (% inhibition is greater than or equal to 0% and less than 25%) | D (% inhibition is greater than or equal to 0% and less than 25%) | 0 to 25 | > 75 | – | – |
| C[C@H](c1ccc(Cl)c(N2CCC(F)CC2)c1)N1CCN(C(=O)n2ccc(NS(C)(=O)=O)n2)CC1 [Example 139, (R)-N-(1-(4-(1-(4-Chloro-3-(4-fluoropiperidin-1-yl)phenyl)ethyl)piperazine-1-carbonyl)-1H-pyrazol-3-yl)methanesulfonamide] | > 75 | 0 to 25 | D (% inhibition is greater than or equal to 0% and less than 25%) | D (% inhibition is greater than or equal to 0% and less than 25%) | 0 to 25 | > 75 | 1 to 10 | < 0.1 |
| CC(=O)Nc1ccn(C(=O)N2CCN(Cc3ccc(Cl)cc3NCC(=O)O)CC2)n1 [Example 108, (2-((4-(3-Acetamido-1H-pyrazole-1-carbonyl)piperazin-1-yl)methyl)-5-chlorophenyl)glycine] | > 75 | 0 to 25 | D (% inhibition is greater than or equal to 0% and less than 25%) | D (% inhibition is greater than or equal to 0% and less than 25%) | 0 to 25 | > 75 | – | – |
| CS(=O)(=O)Nc1ccn(C(=O)N2CCC(Oc3ccc(C(F)(F)F)cc3N3CCCC3)CC2)n1 [Example 80, N-(1-(4-(2-(Pyrrolidin-1-yl)-4-(trifluoromethyl)phenoxy)piperidine-1-carbonyl)-1H-pyrazol-3-yl)methanesulfonamide] | > 75 | 0 to 25 | A (% inhibition is greater than or equal to 75%) | D (% inhibition is greater than or equal to 0% and less than 25%) | 0 to 25 | > 75 | – | – |
